Results reported in patent US20180208605A1, “Substituted Aza Compounds as IRAK-4 Inhibitors” (AURIGENE DISCOVERY TECHNOLOGIES LIMITED, priority 2015, published 2018).
Counter-ions that a name gives are not always drawn.

Target: T1, recombinant IRAK-4 kinase (Homo sapiens, UniProt Q9NWZ3)
T1 construct: purchased Millipore, USA
T1 sequence (Q9NWZ3 1-460): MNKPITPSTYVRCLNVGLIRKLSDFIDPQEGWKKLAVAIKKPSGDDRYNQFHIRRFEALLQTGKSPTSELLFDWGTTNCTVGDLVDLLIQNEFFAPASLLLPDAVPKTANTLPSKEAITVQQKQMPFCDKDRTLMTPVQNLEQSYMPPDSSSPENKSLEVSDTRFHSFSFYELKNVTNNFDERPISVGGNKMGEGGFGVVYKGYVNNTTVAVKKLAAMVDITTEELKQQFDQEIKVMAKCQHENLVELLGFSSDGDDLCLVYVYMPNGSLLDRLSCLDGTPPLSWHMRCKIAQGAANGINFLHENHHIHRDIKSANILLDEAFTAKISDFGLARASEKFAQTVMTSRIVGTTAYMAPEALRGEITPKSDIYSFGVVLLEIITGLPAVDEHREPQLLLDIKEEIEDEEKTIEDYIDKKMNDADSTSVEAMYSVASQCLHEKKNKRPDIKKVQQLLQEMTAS
Assay: IRAK-4 Biochemical Assay (TR-FRET, percent inhibition)
Conditions: TR-FRET, 20 μM ATP, 100 nM Biotin Histone H3; for inhibition at 0.1 µM: read-out: % inhibition of IRAK-4 @0.1 μM, compound at 0.1 μM; for inhibition at 1 µM: read-out: % inhibition of IRAK-4 @ 1 μM, compound at 1 μM
Outline: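 IRAK-4 pre-incubated with compound 30 min at room temperature in Tris-HCl pH 7.5 buffer with MgCl2, MnCl2 and DTT, then reacted 30 min with 100 nM biotin-histone H3 and 20 μM ATP. EDTA stop with Eu-anti-phospho-H3 (Ser10) and APC-streptavidin. Percent inhibition derived from the 665/615 nm emission ratio at 340 nm excitation.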

Structure (SMILES): Cc1ccc(C(=O)Nc2cc3sc(N4CCOCC4)nc3nc2N2CCCCC2)nc1N1CC[C@H](O)C1 [Example 84, (S)-6-(3-hydroxypyrrolidin-1-yl)-5-methyl-N-(2-morpholino-5-(piperidin-1-yl)thiazolo[4,5-b]pyridin-6-yl)picolinamide]
- inhibition at 0.1 µM: 94%
- inhibition at 1 µM: 98%

Structure (SMILES): NCC(=O)O[C@H]1CCN(c2cccc(C(=O)Nc3cc4sc(N5CCOCC5)nc4nc3N3CCCCC3)n2)C1 [Example 36, (S)-1-(6-((2-morpholino-5-(piperidin-1-yl)thiazolo[4,5-b]pyridin-6-yl)carbamoyl)pyridin-2-yl)pyrrolidin-3-ylglycinate 2,2,2-trifluoroacetate]
- inhibition at 0.1 µM: 94%
- inhibition at 1 µM: 99%

Structure (SMILES): NC(=O)C1CCN(c2cccc(C(=O)Nc3cc4sc(N5CCOCC5)nc4nc3N3CCCCC3)n2)CC1 [Example 82, 6-(4-carbamoylpiperidin-1-yl)-N-(2-morpholino-5-(piperidin-1-yl)thiazolo[4,5-b]pyridin-6-yl)picolinamide]
- inhibition at 0.1 µM: 93%
- inhibition at 1 µM: 98%

Structure (SMILES): NCC(=O)N[C@H]1CCN(c2cccc(C(=O)Nc3cc4sc(N5CCOCC5)nc4nc3N3CCCCC3)n2)C1 [Example 27, (S)-6-(3-(2-aminoacetamido)pyrrolidin-1-yl)-N-(2-morpholino-5-(piperidin-1-yl)thiazolo[4,5-b]pyridin-6-yl)picolinamide]
- inhibition at 0.1 µM: 95%
- inhibition at 1 µM: 97%

Structure (SMILES): O=C(Nc1cc2sc(N3CCOCC3)nc2nc1N1CCCCC1)c1cccc(N2CCC[C@H](O)C2)n1 [Example 29, (S)-6-(3-hydroxypiperidin-1-yl)-N-(2-morpholino-5-(piperidin-1-yl)thiazolo[4,5-b]pyridin-6-yl)picolinamide]
- inhibition at 0.1 µM: 98%
- inhibition at 1 µM: 99%

Structure (SMILES): Cc1cc(-c2nc(C(=O)Nc3cc4oc(N5CCOCC5)nc4nc3N3CCCC3=O)co2)ccn1 [Example 89, 2-(2-methylpyridin-4-yl)-N-(2-morpholino-5-(2-oxopyrrolidin-1-yl)oxazolo[4,5-b]pyridin-6-yl)oxazole-4-carboxamide hydrochloride]
- inhibition at 0.1 µM: 26%
- inhibition at 1 µM: 73%

Structure (SMILES): O=C(Nc1cc2sc(N3CCOCC3)nc2nc1N1CCCCC1)c1cccc(N2C3CCC2CC(O)C3)n1 (stereo not shown) [Example 81, 6-(3-hydroxy-8-azabicyclo[3.2.1]octan-8-yl)-N-(2-morpholino-5-(piperidin-1-yl)thiazolo[4,5-b]pyridin-6-yl)picolinamide]
- inhibition at 0.1 µM: 88%
- inhibition at 1 µM: 94%

Structure (SMILES): Cn1cc(-c2nc(C(=O)Nc3cc4sc(N5CCOCC5)nc4nc3N3CCCCC3)co2)ccc1=O [Example 3, 2-(1-methyl-6-oxo-1,6-dihydropyridin-3-yl)-N-(2-morpholino-5-(piperidin-1-yl)thiazolo[4,5-b]pyridin-6-yl)oxazole-4-carboxamide]
- inhibition at 0.1 µM: 97%
- inhibition at 1 µM: 98%

Structure (SMILES): Cc1cc(-c2nc(C(=O)Nc3cc4sc(N5CCOCC5)nc4nc3N3CCC(O)(CO)C3)co2)ccn1 (stereo not shown) [Example 9, N-(5-(3-hydroxy-3-(hydroxymethyl)pyrrolidin-1-yl)-2-morpholinothiazolo[4,5-b]pyridin-6-yl)-2-(2-methylpyridin-4-yl)oxazole-4-carboxamide hydrochloride]
- inhibition at 0.1 µM: 101%
- inhibition at 1 µM: 99%

Structure (SMILES): Cc1cc(-c2ccc(C(=O)Nc3cc4oc(N5CCOCC5)nc4nc3N3CC[C@@H](O)C3)o2)ccn1 [Example 91, (R)-N-(5-(3-hydroxypyrrolidin-1-yl)-2-morpholinooxazolo[4,5-b]pyridin-6-yl)-5-(2-methylpyridin-4-yl)furan-2-carboxamide hydrochloride]
- inhibition at 0.1 µM: 45%
- inhibition at 1 µM: 92%

Structure (SMILES): O=C(Nc1cc2sc(N3CCOCC3)nc2nc1C(F)(F)F)c1cccc(N2CCC(O)C2)n1 (stereo not shown) [Example 44, 6-(3-hydroxypyrrolidin-1-yl)-N-(2-morpholino-5-(trifluoromethyl)thiazolo[4,5-b]pyridin-6-yl)picolinamide]
- inhibition at 0.1 µM: 90%
- inhibition at 1 µM: 96%
